Target: T1, D(4) dopamine receptor (Homo sapiens, UniProt P21917)
T1 sequence (P21917 whole entry): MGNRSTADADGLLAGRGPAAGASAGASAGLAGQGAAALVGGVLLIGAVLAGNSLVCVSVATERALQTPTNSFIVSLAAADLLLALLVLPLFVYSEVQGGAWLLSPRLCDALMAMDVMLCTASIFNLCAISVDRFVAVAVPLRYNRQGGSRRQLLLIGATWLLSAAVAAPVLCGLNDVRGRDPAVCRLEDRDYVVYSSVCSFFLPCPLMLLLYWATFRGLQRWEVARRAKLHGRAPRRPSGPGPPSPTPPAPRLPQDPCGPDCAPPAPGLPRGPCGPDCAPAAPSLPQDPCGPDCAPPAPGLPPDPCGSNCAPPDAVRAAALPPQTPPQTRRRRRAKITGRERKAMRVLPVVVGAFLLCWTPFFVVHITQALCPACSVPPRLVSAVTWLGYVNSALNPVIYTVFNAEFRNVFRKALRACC
Test: Receptor Binding Assay: Determination of binding to D4.4 receptor was performed using [3H]-YM-09151-2 (70-87 Ci/mmol, 0.3 nM), as a radioligand, in the presence of various concentrations of the tested compound. Reactions were carried out in 50 mM TRIS-HCl (pH 7.4) containing 5 mM MgCl2, 5 mM EDTA, 5 mM KCl and 1.5 mM CaCl2, for 60 minutes at 22° C. The reaction was terminated by rapid vacuum filtration onto glass fiber filters.

An IC50 of 10 µM was found for `O=c1[nH]c(CN2CCN(c3ccccc3O)CC2)nc2ccccc12` in this work.
